Measurements taken from article PMC9643456, “Matching amino acids membrane preference profile to improve activity of antimicrobial peptides” (Communications Biology, 2022).
Converted amounts (≈) assume the structure as drawn. Square brackets hold non-standard residues; d marks the D form. Ends that are not written are not given here. Peptide text beside a SMILES is read from it. Trp(2,5,7-tBu3) = CC(C)(C)c1cc(C(C)(C)C)c2[nH]c(C(C)(C)C)c(C[C@H](N)C(=O)O)c2c1

Assays:
MDR A. baumannii = test: microbe, parasite or virus in culture; details: CLSI broth microdilution; CAMHB with 50 mg/L Ca2+, 10 mg/L Mg2+; 5 × 10^5 CFU/ml; 18 h 37 °C; triplicate; strain ATCC BAA-1605
Excerpt: (§1) MDR Pseudomonas aeruginosa (CCARM 2180) was purchased from the Culture Collection of Antimicrobial Resistance Microbes (Seoul, Republic of Korea). MDR Acinetobacter baumannii (ATCC BAA-1605) and MDR Enterococcus faecalis (ATCC 51575) were purchased from the American Type Culture Collection (Manassas, VA, USA). MDR Staphylococcus aureus (KCCM 40510) was purchased from the Korean Culture Center of Microorganisms (Seoul, Republic of Korea). S. aureus (KCTC 1621) was purchased from the Korean Collection for Type Cultures. A. baumannii (KCCM 40203) was purchased from the Korean Culture Center of Microorganisms (Seoul, Republic of Korea).
(§2) To assess antimicrobial activity, the MIC50 and MIC90 were measured using broth microdilution following CLSI guidelines. […] Each experiment was performed in triplicate. Meropenem (Sigma, Darmstadt, Germany) and colistin were used as control antibiotics. Cation-adjusted Mueller–Hinton broth (CAMHB) (Becton, Dickinson and Company, Franklin Lakes, USA) with supplied calcium (50 mg/L) and magnesium (10 mg/L) was used for the CLSI-test condition. Bacteria in midlog phase and peptides were separately diluted in CAMHB. The bacteria and peptide solutions were then mixed in 96-well polyethylene plates (SPL, Gyeonggi-do, Korea) and incubated for 18 h at 37 °C. The final concentration for bacteria was 5 × 10^5 CFU/ml. […] The MIC was defined to be the lowest concentration of peptide without visible turbidity by comparing with control antibiotics with the unaided eye. […] Each experiment was performed in triplicate. MICs in albumin and acetic acid solutions were measured using the same protocol but with 0.2% bovine serum albumin (Bovogen, Keilor, Australia), 0.01% acetic acid (Merck, New Jersey, USA), and CAMHB with both calcium and magnesium. In addition, MICs used in the antibiotic resistance acquisition test, the outer–inner membrane permeation test, and the transmembrane potential test and for FE-SEM were individually determined. The final bacterial concentrations used were as follows: for resistance acquisition, optical density (OD) 0.01; for outer–inner membrane permeability assays (LB), OD 0.1; for the transmembrane potential test, 1 × 10^8 CFU/ml (OD 0.171); […]. Inhibitory activity unidentifiable by direct observation was determined by counting the CFUs. Each experiment was performed at least twice.

MDR E. faecalis = test: microbe, parasite or virus in culture; details: CLSI broth microdilution; CAMHB with 50 mg/L Ca2+, 10 mg/L Mg2+; 5 × 10^5 CFU/ml; 18 h 37 °C; triplicate; strain ATCC 51575
Excerpt: as §1, §2

MDR P. aeruginosa = test: microbe, parasite or virus in culture; details: CLSI broth microdilution; CAMHB with 50 mg/L Ca2+, 10 mg/L Mg2+; 5 × 10^5 CFU/ml; 18 h 37 °C; no visible turbidity; triplicate; strain CCARM 2180
Excerpt: as §1, §2

MDR S. aureus = test: microbe, parasite or virus in culture; details: CLSI broth microdilution; CAMHB with 50 mg/L Ca2+, 10 mg/L Mg2+; 5 × 10^5 CFU/ml; 18 h 37 °C; triplicate; strain KCCM 40510
Excerpt: as §1, §2

human red blood cells = test: Hemolytic activity; assay type: cell-based; details: red cells of human, 18 h
How it was run: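 Haemolysis was read as A540 of cleared supernatants after 18 h at 37 °C, with 0% and 100% lysis set by peptide-free PBS and 1% Triton X-100 and melittin as positive control. Human RBCs were at 4% final, peptide serially diluted 100–0.78 μM; three replicates.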

Compound | Minimum inhibitory concentrations, MDR A. baumannii (MDR A. baumannii) [µM] | Minimum inhibitory concentrations, MDR E. faecalis (MDR E. faecalis) [µM] | Minimum inhibitory concentrations, MDR P. aeruginosa (MDR P. aeruginosa) [µM] | Minimum inhibitory concentrations, MDR S. aureus (MDR S. aureus) [µM] | Hemolysis percent, 25 μM (human red blood cells; 25) [%] | Hemolysis percent, 50 μM (human red blood cells; 50) [%] | Hemolysis percent, 100 μM (human red blood cells; 100) [%]
CC[C@@H](C)[C@@H](NC(=O)[C@@H](Cc1c[nH]c2ccccc12)NC(=O)[C@@H](CCCCN)NC(=O)[C@@H](CC(C)C)NC(=O)[C@H](N)Cc1c[nH]c2ccccc12)C(=O)NCC(=O)N[C@H](CC(C)C)C(=O)N[C@H](CCCNC(=N)N)C(=O)N[C@H](CCCCN)C(=O)N[C@H](CCCCN)C(=O)N[C@H](CCCNC(=N)N)C(N)=O [WCopWK] (H-[dW][dL][dK][dW][dI]G[dL][dR][dK][dK][dR]-NH2) | >20 | >20 | >20 | >20 |  |  | 
CC[C@@H](C)[C@@H](NC(=O)[C@@H](Cc1c[nH]c2ccccc12)NC(=O)[C@H](NC(=O)[C@@H](CC(C)C)NC(=O)[C@H](N)Cc1c[nH]c2ccccc12)C(C)C)C(=O)NCC(=O)N[C@H](CC(C)C)C(=O)N[C@H](CCCNC(=N)N)C(=O)N[C@H](CCCCN)C(=O)N[C@H](CCCCN)C(=O)N[C@H](CCCNC(=N)N)C(N)=O [WCopWV] (H-[dW][dL][dV][dW][dI]G[dL][dR][dK][dK][dR]-NH2) | 1.25 (≈ 1.82 µg/mL) | 2.5 (≈ 3.63 µg/mL) | 10 (≈ 14.5 µg/mL) | 2.5 (≈ 3.63 µg/mL) |  |  | 
CC[C@@H](C)[C@@H](NC(=O)[C@@H](Cc1c[nH]c2ccccc12)NC(=O)[C@@H](Cc1ccccc1)NC(=O)[C@@H](CC(C)C)NC(=O)[C@H](N)Cc1c[nH]c2ccccc12)C(=O)NCC(=O)N[C@H](CC(C)C)C(=O)N[C@H](CCCNC(=N)N)C(=O)N[C@H](CCCCN)C(=O)N[C@H](CCCCN)C(=O)N[C@H](CCCNC(=N)N)C(N)=O [WCopWF] (H-[dW][dL][dF][dW][dI]G[dL][dR][dK][dK][dR]-NH2) | 1.25 (≈ 1.88 µg/mL) | 2.5 (≈ 3.75 µg/mL) | 10 (≈ 15 µg/mL) | 2.5 (≈ 3.75 µg/mL) |  |  | 
WLLWIALRKK-NH2 [WCopW] | 5 | 10 | > 20 | 5 |  |  | 
CC[C@@H](C)[C@@H](NC(=O)[C@@H](Cc1c[nH]c2ccccc12)NC(=O)[C@H](NC(=O)[C@@H](CC(C)C)NC(=O)[C@H](N)Cc1c[nH]c2ccccc12)C(C)C)C(=O)N[C@H](Cc1c[nH]c2ccccc12)C(=O)N[C@H](CCCNC(=N)N)C(=O)N[C@H](CCCNC(=N)N)C(N)=O [WCopW32] (H-[dW][dL][dV][dW][dI][dW][dR][dR]-NH2) | 2.5 (≈ 3.03 µg/mL) | 0.63 (≈ 0.765 µg/mL) |  | 0.63 (≈ 0.765 µg/mL) | 1.66 ± 0.11 | 2.95 ± 0.21 | 4.53 ±0.01
CC[C@H](C)[C@H](NC(=O)[C@H](Cc1c[nH]c2ccccc12)NC(=O)[C@H](CC(C)C)NC(=O)[C@H](CC(C)C)NC(=O)[C@@H](N)Cc1c(C(C)(C)C)[nH]c2c(C(C)(C)C)cc(C(C)(C)C)cc12)C(=O)N[C@@H](C)C(=O)N[C@@H](CC(C)C)C(=O)N[C@@H](CCCNC(=N)N)C(=O)N[C@@H](CCCCN)C(=O)N[C@@H](CCCCN)C(N)=O [WtCopW] (H-[Trp(2,5,7-tBu3)]LLWIALRKK-NH2) | 10 (≈ 14.9 µg/mL) | 20 (≈ 29.9 µg/mL) | > 20 | 5 (≈ 7.47 µg/mL) |  |  | 
HLLWIALRKK-NH2 [HCopW] | >20 | >20 | >20 | >20 |  |  | 
